In ChEMBL document CHEMBL2413072, “Synthesis and in vitro anticancer studies of novel C-2 arylidene congeners of lantadenes” (2013):

Assays:
Type in all cases: functional
SK-MEL-2 = test: Growth inhibition of human SK-MEL-2 cells assessed as growth inhibition at 10 uM by sulforhodamine B assay; conditions: read-out: GI
UO-31 [1] = test: Growth inhibition of human UO31 cells assessed as cell growth at 10^-8 M by sulforhodamine B assay; conditions: read-out: Activity
KM12 [2] = test: Growth inhibition of human KM12 cells assessed as cell growth at 10^-8 M by sulforhodamine B assay; conditions: read-out: Activity
SNB-19 = test: Growth inhibition of human SNB19 cells assessed as growth inhibition at 10 uM by sulforhodamine B assay; conditions: read-out: GI
DU-145 = test: Growth inhibition of human DU145 cells assessed as cell growth at 10^-8 M by sulforhodamine B assay; conditions: read-out: Activity
[3] = Growth inhibition of human NCI-ADR-RES cells by sulforhodamine B assay
HOP-92 = test: Growth inhibition of human HOP92 cells assessed as growth inhibition at 10 uM by sulforhodamine B assay; conditions: read-out: GI
RPMI-8226 = test: Growth inhibition of human RPMI8226 cells assessed as cell growth at 10 uM by sulforhodamine B assay; conditions: read-out: Activity
MDA-MB-435 [4] = test: Growth inhibition of human MDA-MB-435 cells assessed as cell growth at 10 uM by sulforhodamine B assay; conditions: read-out: Activity
MOLT-4 [5] = test: Growth inhibition of human MOLT4 cells assessed as cell growth at 10^-6 M by sulforhodamine B assay; conditions: read-out: Activity
BT-549 = test: Growth inhibition of human BT549 cells assessed as cell growth at 10 uM by sulforhodamine B assay; conditions: read-out: Activity
RXF 393 = test: Growth inhibition of human RXF393 cells assessed as growth inhibition at 10 uM by sulforhodamine B assay; conditions: read-out: GI
NCI-H522 = test: Growth inhibition of human NCI-H522 cells assessed as cell growth at 10^-6 M by sulforhodamine B assay; conditions: read-out: Activity
HCT-116 = test: Growth inhibition of human HCT116 cells assessed as cell growth at 10 uM by sulforhodamine B assay; conditions: read-out: Activity
A549 = test: Growth inhibition of human A549/ATCC cells assessed as growth inhibition at 10 uM by sulforhodamine B assay; conditions: read-out: GI
OVCAR-5 [6] = test: Growth inhibition of human OVCAR5 cells assessed as cell growth at 10 uM by sulforhodamine B assay; conditions: read-out: Activity
KM12 [7] = test: Growth inhibition of human KM12 cells assessed as cell growth at 10 uM by sulforhodamine B assay; conditions: read-out: Activity
OVCAR-8 = test: Growth inhibition of human OVCAR8 cells assessed as cell growth at 10^-8 M by sulforhodamine B assay; conditions: read-out: Activity
OVCAR-5 [8] = test: Growth inhibition of human OVCAR5 cells by sulforhodamine B assay
TK-10 [9] = test: Growth inhibition of human TK10 cells by sulforhodamine B assay
NCI-H460 = test: Growth inhibition of human NCI-H460 cells assessed as cell growth at 10^-8 M by sulforhodamine B assay; conditions: read-out: Activity
MOLT-4 [10] = test: Growth inhibition of human MOLT4 cells assessed as cell growth at 10^-4 M by sulforhodamine B assay; conditions: read-out: Activity
NCI-H23 = test: Growth inhibition of human NCI-H23 cells assessed as cell growth at 10^-7 M by sulforhodamine B assay; conditions: read-out: Activity
KM12 [11] = test: Growth inhibition of human KM12 cells assessed as growth inhibition at 10 uM by sulforhodamine B assay; conditions: read-out: GI
MDA-MB-435 [12] = test: Growth inhibition of human MDA-MB-435 cells by sulforhodamine B assay
HL-60(TB) [13] = test: Growth inhibition of human HL-60(TB) cells assessed as cell growth at 10 uM by sulforhodamine B assay; conditions: read-out: Activity
TK-10 [14] = test: Growth inhibition of human TK10 cells assessed as cell growth at 10 uM by sulforhodamine B assay; conditions: read-out: Activity
UO-31 [15] = test: Growth inhibition of human UO31 cells assessed as cell growth at 10^-7 M by sulforhodamine B assay; conditions: read-out: Activity
[16] = Growth inhibition of human Hs 578T cells assessed as cell growth at 10^-6 M by sulforhodamine B assay; conditions: read-out: Activity
CCRF-CEM = test: Growth inhibition of human CCRF-CEM cells assessed as cell growth at 10 uM by sulforhodamine B assay; conditions: read-out: Activity
SF-295 = test: Growth inhibition of human SF295 cells by sulforhodamine B assay
LOX IMVI = test: Growth inhibition of human LOXIMVI cells assessed as cell growth at 10 uM by sulforhodamine B assay; conditions: read-out: Activity
[17] = Growth inhibition of human EKVX cells assessed as growth inhibition at 10 uM by sulforhodamine B assay; conditions: read-out: GI
[18] = Growth inhibition of human HCC2998 cells assessed as growth inhibition at 10 uM by sulforhodamine B assay; conditions: HCC 2998, read-out: GI
SK-MEL-28 = test: Growth inhibition of human SK-MEL-28 cells assessed as growth inhibition at 10 uM by sulforhodamine B assay; conditions: read-out: GI
HCT-15 = test: Growth inhibition of human HCT15 cells assessed as cell growth at 10^-7 M by sulforhodamine B assay; conditions: read-out: Activity
OVCAR-3 = test: Growth inhibition of human OVCAR3 cells assessed as growth inhibition at 10 uM by sulforhodamine B assay; conditions: read-out: GI
[19] = Growth inhibition of human EKVX cells assessed as cell growth at 10 uM by sulforhodamine B assay; conditions: read-out: Activity
PC-3 = test: Growth inhibition of human PC3 cells assessed as cell growth at 10 uM by sulforhodamine B assay; conditions: read-out: Activity
HL-60(TB) [20] = test: Growth inhibition of human HL-60(TB) cells by sulforhodamine B assay
NCI-H322M = test: Growth inhibition of human NCI-H322M cells by sulforhodamine B assay
[21] = read-out: LC50 (the source's name)
[22] = read-out: pLC50 (the source's name) (converted)

Molecule CC(C)=CC(=O)O[C@@H]1CC(C)(C)C[C@H]2C3=CC[C@@H]4[C@@]5(C)CCC(=O)C(C)(C)[C@@H]5CC[C@@]4(C)[C@]3(C)CC[C@@]12C(=O)O has an inhibition of growth at 10 µM (SK-MEL-2) of 21.8%, a growth at 0.01 µM (UO-31 [1]) of 88% and a growth at 0.01 µM (KM12 [2]) of 101%. For the same molecule, the inhibition of growth at 10 µM (SNB-19) was 42.7%, the growth at 0.01 µM (DU-145) was 105% and the GI50 ([3]; read-out: GI50) was 3.75 µM. For the same molecule, the CC50 [3, 21] was > 100 µM, the TGI ([3]; read-out: TGI) was > 100 µM and the GI50 ([3]; read-out: pGI50 (converted)) was 3.72 µM. For the same molecule, the CC50 [3, 22] was > 100 µM, the TGI ([3]; read-out: pTGI (converted)) was > 100 µM and the inhibition of growth at 10 µM (HOP-92) was 71.6%. For the same molecule, the growth at 10 µM (RPMI-8226) was 19.6%, the growth at 10 µM (MDA-MB-435 [4]) was 89.6% and the growth at 1 µM (MOLT-4 [5]) was 85%. The growth at 10 µM (BT-549) was 69.6%, the inhibition of growth at 10 µM (RXF 393) was 15.4% and the growth at 1 µM (NCI-H522) was 82%. The growth at 10 µM (HCT-116) was 26.6%, the inhibition of growth at 10 µM (A549) was 77.8% and the growth at 10 µM (OVCAR-5 [6]) was 96.3%. It also gave a growth at 10 µM (KM12 [7]) of 30.4%, a growth at 0.01 µM (OVCAR-8) of 95% and a GI50 (OVCAR-5 [8]; read-out: GI50) of 6.53 µM. For the same molecule, the CC50 (OVCAR-5 [8]; [21]) was > 100 µM, the TGI (OVCAR-5 [8]; read-out: TGI) was 32.7 µM and the GI50 (OVCAR-5 [8]; read-out: pGI50 (converted)) was 6.61 µM. For the same molecule, the CC50 (OVCAR-5 [8]; [22]) was > 100 µM, the TGI (OVCAR-5 [8]; read-out: pTGI (converted)) was 32.4 µM and the GI50 (TK-10 [9]; read-out: GI50) was 7.02 µM. The CC50 (TK-10 [9]; [21]) was > 100 µM, the TGI (TK-10 [9]; read-out: TGI) was 49.6 µM and the GI50 (TK-10 [9]; read-out: pGI50 (converted)) was 7.08 µM. For the same molecule, the CC50 (TK-10 [9]; [22]) was > 100 µM, the TGI (TK-10 [9]; read-out: pTGI (converted)) was 50.1 µM and the growth at 0.01 µM (NCI-H460) was 105%. The growth at 100 µM (MOLT-4 [10]) was -21%, the growth at 0.1 µM (NCI-H23) was 90% and the inhibition of growth at 10 µM (KM12 [11]) was 69.6%. The GI50 (MDA-MB-435 [12]; read-out: GI50) was 6.22 µM, the CC50 (MDA-MB-435 [12]; [21]) was > 100 µM and the TGI (MDA-MB-435 [12]; read-out: TGI) was > 100 µM. The GI50 (MDA-MB-435 [12]; read-out: pGI50 (converted)) was 6.17 µM, the CC50 (MDA-MB-435 [12]; [22]) was > 100 µM and the TGI (MDA-MB-435 [12]; read-out: pTGI (converted)) was > 100 µM. For the same molecule, the growth at 10 µM (HL-60(TB) [13]) was 10.2%, the growth at 10 µM (TK-10 [14]) was 78.1% and the growth at 0.1 µM (UO-31 [15]) was 91%. It also gave a growth at 1 µM [16] of 86%, a growth at 10 µM (CCRF-CEM) of 25.3% and a GI50 (SF-295; read-out: GI50) of 1.7 µM. The CC50 (SF-295; [21]) was 72.7 µM, the TGI (SF-295; read-out: TGI) was 11.9 µM and the GI50 (SF-295; read-out: pGI50 (converted)) was 1.7 µM. It also gave a CC50 (SF-295; [22]) of 72.4 µM, a TGI (SF-295; read-out: pTGI (converted)) of 12 µM and a growth at 10 µM (LOX IMVI) of 51.2%. For the same molecule, the inhibition of growth at 10 µM [17] was 58.8%, the inhibition of growth at 10 µM [18] was 47.2% and the inhibition of growth at 10 µM (SK-MEL-28) was < 10%. It also gave a growth at 0.1 µM (HCT-15) of 86%, an inhibition of growth at 10 µM (OVCAR-3) of 38.7% and a growth at 10 µM [19] of 41.2%. For the same molecule, the growth at 10 µM (PC-3) was 36.9%, the GI50 (HL-60(TB) [20]; read-out: GI50) was 2.21 µM and the CC50 (HL-60(TB) [20]; [21]) was > 100 µM. For the same molecule, the TGI (HL-60(TB) [20]; read-out: TGI) was 5.38 µM, the GI50 (HL-60(TB) [20]; read-out: pGI50 (converted)) was 2.19 µM and the CC50 (HL-60(TB) [20]; [22]) was > 100 µM. The TGI (HL-60(TB) [20]; read-out: pTGI (converted)) was 5.37 µM, the GI50 (NCI-H322M; read-out: GI50) was 2.87 µM and the LC50 (50% lethal concentration) (NCI-H322M; read-out: LC50) was > 100 µM. The TGI (NCI-H322M; read-out: TGI) was 19.9 µM, the GI50 (NCI-H322M; read-out: pGI50 (converted)) was 2.88 µM and the LC50 (50% lethal concentration) (NCI-H322M; read-out: pLC50 (converted)) was > 100 µM. It also gave a TGI (NCI-H322M; read-out: pTGI (converted)) of 20 µM.
